# Laboratory results published in patent US20100028463A1, “EXTRACT OF STEWARTIA KOREANA AND USE THEREOF” (priority 2006, published 2010).
# System: human umbilical vein endothelial cells (HUVEC)
# Assay: Migration of endothelial cells, Boyden chamber method
# Format: cell-based
# Details: positive control, 10 ng/mL VEGF, cultured 2 hours
# Experimental: 0.1% gelatin was applied on a polycarbonate membrane (Costar, USA) for 10 minutes and dried at room temperature for 1 hour. 30 μL of human umbilical vein endothelial cells (HUVEC, 1×10^6 cells/mL) was put in a lower chamber of a trans-wells (Costar, USA), covered with the dried polycarbonate membrane, and an upper chamber was overlaid, followed by fixing by a screw. The chamber was turned over so that the cells could be attached to the membrane and cultured at 37° C. in a CO2 incubator for 2 hours.
# 50 μL of Stewartia koreana extract according to the present invention was added to the upper chamber and cultured for 2 hours. The polycarbonate membrane was died using the diff-quick staining agent and the migrated endothelial cells were counted through the polycarbonate membrane using a microscope (Table 1). Each dry extract powder of Stewartia koreana otained in Example were dissolved in water in an amount of 100 μg/mL. The negative control was water and the positive control was 10 ng/mL of VEGF (vascular endothelialgrowth factor, Sigma).
# The polycarbonate membrane was stained with diff-quick staining agent and the number of the endothelial cells which had migrated through the polycarbonate membrane was then counted using a microscope (FIG. 1). […] The dry powder of the ethanol extract of Stewartia koreana and compound Madecassol™ were added to water in an amount of 12.5 to 100 μg/mL.
substance,measurement,value
VEGF,Migrated endothelial cells,75 ± 0.41
